From ChEMBL document CHEMBL1201862, “PubChem BioAssay data set” (2004)
Calls of active or inactive are those of the source.

Experiments:
[1] = M. tuberculosis H37Rv growth inhibitors, H37Rv strain (AID 1626); format: functional
cells = format: functional
CAAX prenyl protease 2 = biological target: T1, CAAX prenyl protease 2 (Saccharomyces cerevisiae S288c, UniProt Q03530); format: biochemical
T1 sequence (Q03530 whole entry): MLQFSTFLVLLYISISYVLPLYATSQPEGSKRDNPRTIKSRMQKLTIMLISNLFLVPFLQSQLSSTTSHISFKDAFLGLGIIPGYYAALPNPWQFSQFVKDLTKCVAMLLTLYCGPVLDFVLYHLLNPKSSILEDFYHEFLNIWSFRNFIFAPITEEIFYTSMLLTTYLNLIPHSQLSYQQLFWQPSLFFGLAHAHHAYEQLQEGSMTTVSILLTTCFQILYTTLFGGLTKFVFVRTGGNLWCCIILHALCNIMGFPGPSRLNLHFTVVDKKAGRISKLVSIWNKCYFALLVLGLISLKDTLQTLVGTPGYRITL

Estrogen receptor = biological target: T2, Estrogen receptor (Homo sapiens, UniProt P03372);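 also: potency for inhibiting coactivator peptide recruitment to the receptor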
T2 sequence (P03372 whole entry): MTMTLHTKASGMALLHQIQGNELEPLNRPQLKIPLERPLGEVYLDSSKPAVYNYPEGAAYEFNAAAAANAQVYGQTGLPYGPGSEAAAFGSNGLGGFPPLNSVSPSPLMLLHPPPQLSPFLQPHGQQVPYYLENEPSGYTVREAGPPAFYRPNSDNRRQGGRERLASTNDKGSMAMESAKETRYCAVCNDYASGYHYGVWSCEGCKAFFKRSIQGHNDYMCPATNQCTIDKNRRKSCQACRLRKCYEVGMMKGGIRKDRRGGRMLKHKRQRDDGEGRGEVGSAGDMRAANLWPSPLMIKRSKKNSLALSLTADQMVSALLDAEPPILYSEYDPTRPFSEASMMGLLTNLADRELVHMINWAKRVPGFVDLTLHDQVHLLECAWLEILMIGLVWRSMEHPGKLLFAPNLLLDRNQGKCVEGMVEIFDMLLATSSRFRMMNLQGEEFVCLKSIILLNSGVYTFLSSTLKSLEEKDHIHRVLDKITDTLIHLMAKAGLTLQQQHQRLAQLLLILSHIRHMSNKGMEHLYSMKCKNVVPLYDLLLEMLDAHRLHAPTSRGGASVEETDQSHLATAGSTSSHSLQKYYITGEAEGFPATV

Ion channel NompC = Ion channel NompC (Danio rerio, UniProt Q7T1G6); assay: Fluorescence counterscreen assay for TRPML3 agonists: dose response cell-based high-throughput screening assay to identify agonists of the transient receptor potential channel N1 (TRPN1). [Related pubchem assays: 1526, 1424, 1448 ]; format: functional
Chain of Ion channel NompC (Q7T1G6 whole entry): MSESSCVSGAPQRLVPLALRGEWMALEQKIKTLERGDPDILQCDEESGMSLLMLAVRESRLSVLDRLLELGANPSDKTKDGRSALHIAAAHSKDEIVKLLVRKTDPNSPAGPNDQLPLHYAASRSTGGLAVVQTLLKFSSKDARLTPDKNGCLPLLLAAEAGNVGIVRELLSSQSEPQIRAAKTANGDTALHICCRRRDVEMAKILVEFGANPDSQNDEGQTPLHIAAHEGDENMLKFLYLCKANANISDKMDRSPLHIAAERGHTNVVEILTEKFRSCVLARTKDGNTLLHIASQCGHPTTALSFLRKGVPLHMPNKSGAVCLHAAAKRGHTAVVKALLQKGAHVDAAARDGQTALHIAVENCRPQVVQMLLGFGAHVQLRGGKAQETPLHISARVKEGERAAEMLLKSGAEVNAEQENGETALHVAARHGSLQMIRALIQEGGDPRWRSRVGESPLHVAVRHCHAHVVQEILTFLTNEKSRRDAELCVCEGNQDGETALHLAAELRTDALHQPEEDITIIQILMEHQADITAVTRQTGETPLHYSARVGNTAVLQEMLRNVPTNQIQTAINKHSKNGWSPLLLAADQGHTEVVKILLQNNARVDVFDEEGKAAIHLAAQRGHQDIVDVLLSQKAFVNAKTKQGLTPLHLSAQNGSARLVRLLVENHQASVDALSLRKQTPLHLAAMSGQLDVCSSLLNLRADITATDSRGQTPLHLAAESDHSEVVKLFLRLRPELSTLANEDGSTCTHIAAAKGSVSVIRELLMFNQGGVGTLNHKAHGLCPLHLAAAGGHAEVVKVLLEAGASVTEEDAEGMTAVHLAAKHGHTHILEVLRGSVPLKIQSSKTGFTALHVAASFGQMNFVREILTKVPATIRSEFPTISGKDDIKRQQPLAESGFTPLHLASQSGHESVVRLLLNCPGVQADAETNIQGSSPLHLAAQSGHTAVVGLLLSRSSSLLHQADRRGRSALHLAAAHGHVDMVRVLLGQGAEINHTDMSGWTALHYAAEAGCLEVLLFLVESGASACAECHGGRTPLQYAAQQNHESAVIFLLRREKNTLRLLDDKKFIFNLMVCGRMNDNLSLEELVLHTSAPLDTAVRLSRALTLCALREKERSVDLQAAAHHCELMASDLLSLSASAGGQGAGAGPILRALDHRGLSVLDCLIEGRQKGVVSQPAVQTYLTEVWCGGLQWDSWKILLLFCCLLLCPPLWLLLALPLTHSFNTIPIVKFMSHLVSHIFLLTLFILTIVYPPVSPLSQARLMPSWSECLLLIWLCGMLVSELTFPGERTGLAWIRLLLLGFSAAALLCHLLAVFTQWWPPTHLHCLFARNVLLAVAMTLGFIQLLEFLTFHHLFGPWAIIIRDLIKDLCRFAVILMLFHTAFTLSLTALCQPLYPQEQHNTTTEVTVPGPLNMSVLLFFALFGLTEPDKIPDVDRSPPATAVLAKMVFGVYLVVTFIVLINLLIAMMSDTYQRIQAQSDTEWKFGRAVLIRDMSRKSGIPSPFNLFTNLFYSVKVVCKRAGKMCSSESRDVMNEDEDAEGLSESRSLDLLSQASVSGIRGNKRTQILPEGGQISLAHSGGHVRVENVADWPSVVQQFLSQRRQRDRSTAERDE

Mucolipin-3 = biological target: T3, Mucolipin-3 (Homo sapiens, UniProt Q8TDD5); assay: Dose response cell-based high-throughput screening assay for agonists of the transient receptor potential channel ML3 (TRPML3). [Related pubchem assays: 1526, 1424, 1448 ]; format: functional
T3 sequence (Q8TDD5 whole entry): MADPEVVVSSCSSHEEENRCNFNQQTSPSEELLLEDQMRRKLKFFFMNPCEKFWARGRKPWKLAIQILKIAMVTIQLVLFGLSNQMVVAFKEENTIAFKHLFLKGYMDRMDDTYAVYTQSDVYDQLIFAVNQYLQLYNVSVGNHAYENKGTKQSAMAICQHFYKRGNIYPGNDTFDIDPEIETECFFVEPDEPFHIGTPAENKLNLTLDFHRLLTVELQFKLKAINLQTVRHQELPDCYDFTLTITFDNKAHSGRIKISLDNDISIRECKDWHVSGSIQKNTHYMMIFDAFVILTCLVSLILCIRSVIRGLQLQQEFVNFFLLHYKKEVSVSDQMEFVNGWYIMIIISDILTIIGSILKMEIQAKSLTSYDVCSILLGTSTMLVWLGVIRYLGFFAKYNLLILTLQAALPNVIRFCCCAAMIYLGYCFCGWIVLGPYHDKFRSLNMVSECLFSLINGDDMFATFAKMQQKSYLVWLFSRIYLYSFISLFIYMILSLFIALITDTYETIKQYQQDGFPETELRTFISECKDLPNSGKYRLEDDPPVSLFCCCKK

[2] = biological target: Polyadenylate-binding protein 1 (Homo sapiens, UniProt P11940); assay: PABP inhibition in translation initiation, SAR follow-up (AID 435018); format: functional
Chain of Polyadenylate-binding protein 1 (P11940 whole entry): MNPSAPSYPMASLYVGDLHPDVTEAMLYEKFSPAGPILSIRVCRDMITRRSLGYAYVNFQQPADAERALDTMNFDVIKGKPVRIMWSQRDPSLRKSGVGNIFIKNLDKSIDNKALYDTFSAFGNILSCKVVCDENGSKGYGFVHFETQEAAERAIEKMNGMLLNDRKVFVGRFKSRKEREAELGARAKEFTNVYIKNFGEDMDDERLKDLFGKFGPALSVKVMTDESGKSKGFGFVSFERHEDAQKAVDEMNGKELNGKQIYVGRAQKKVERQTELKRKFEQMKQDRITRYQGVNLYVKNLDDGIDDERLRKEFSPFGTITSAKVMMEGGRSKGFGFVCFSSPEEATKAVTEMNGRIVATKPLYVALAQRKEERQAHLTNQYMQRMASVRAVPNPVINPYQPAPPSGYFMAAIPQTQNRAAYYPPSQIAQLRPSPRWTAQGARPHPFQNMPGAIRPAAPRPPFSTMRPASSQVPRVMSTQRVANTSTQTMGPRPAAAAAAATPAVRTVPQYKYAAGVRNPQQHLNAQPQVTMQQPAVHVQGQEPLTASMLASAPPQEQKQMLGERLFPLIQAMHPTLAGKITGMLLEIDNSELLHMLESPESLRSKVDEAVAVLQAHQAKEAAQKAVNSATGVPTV

[3] = biological target: Eukaryotic translation initiation factor 4H (Homo sapiens, UniProt Q15056); assay: eIF4H inhibition in translation initiation, SAR follow-up (AID 435011); format: functional
[4] = Luminescence Cell-Based Dose Retest to Confirm Inhibitors of Cancer Stem Cells. [Related pubchem assays (depositor defined):AID2717, AID2721]; format: functional; conditions: Homo sapiens
[5] = biological target: Induced myeloid leukemia cell differentiation protein Mcl-1 (Homo sapiens, UniProt Q07820); format: functional
Chain of Induced myeloid leukemia cell differentiation protein Mcl-1 (Q07820 whole entry): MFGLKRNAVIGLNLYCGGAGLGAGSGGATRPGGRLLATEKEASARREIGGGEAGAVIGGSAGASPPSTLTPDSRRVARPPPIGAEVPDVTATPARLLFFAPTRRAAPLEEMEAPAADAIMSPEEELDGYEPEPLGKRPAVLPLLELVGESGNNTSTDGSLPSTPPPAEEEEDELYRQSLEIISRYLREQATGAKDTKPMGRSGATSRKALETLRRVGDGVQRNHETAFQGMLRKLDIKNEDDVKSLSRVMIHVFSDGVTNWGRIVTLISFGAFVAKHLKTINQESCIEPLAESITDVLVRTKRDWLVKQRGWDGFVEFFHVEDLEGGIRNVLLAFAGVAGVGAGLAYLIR

SMILES: CCOC(=O)c1ccc(-n2c(CCC(=O)O)ccc2-c2cccs2)cc1
- IC50 [1]: > 100 µM (active)
- IC50 (cells): 36.2 µM (active)

SMILES: Cc1ccc(OCCn2c3ccccc3n3nc(C)c(=O)nc23)cc1
- AC50 (CAAX prenyl protease 2): 6.85 µM (active)

SMILES: CCOc1cccc(-c2nnc3sc(-c4cc(OC)c(OC)c(OC)c4)nn23)c1
- IC50 (Estrogen receptor): > 50 µM (not active)

SMILES: CCC1CCCCN1S(=O)(=O)c1ccccc1[N+](=O)[O-] (configuration not stated)
- EC50 (Ion channel NompC): > 29.9 µM (not active)
- EC50 (Mucolipin-3): 6.06 µM (active)

SMILES: COc1ccc(NC(=O)C2CCCN2C(=O)Oc2ccccc2)cc1 (configuration not stated)
- IC50 [2]: > 100 µM (inactive)
- IC50 [3]: > 100 µM (inactive)

SMILES: CCC1CCCCN1S(=O)(=O)c1ccc(S(=O)(=O)N(Cc2ccccn2)CC2CCCO2)cc1 (configuration not stated)
- EC50 (Ion channel NompC): > 29.9 µM (not active)
- AC50 [4]: 2.4 µM (active)
- EC50 (Mucolipin-3): 1.81 µM (active)
- IC50 [5]: < 0.4 µM (not active)
